# Structures can show the parent of a compound that is named as a salt.
# Assay: RP, Waters ACQUITY UPLC HSS T3, 100 × 2.1 mm, 1.8 µm, 30 °C, 0.4 mL/min, estimated dead time 0.55 min; A: water + 0.1% formic acid, pH 3; B: acetonitrile + 0.1% formic acid, pH 3; gradient (min/%B) 0/0 2/0 15/100 22/100 22.1/0 26/0
# Conditions: stereoisomer not certain
row,SMILES,LC retention time
1,CN1CCCCC1C(=O)O (stereo not drawn) [1-Methylpiperidine-2-carboxylic acid],1.1 min
2,OCC1OC(Oc2ccc(O)cc2)C(O)C(O)C1O (stereo not drawn) [Arbutin],1.34 min
3,CC(C)=CCCC(C)=CCOc1c2ccoc2cc2oc(=O)ccc12 [Bergamottin],17.4 min
4,COc1ccc(-c2cc(=O)c3c(O)cc(O)cc3o2)cc1O [Diosmetin],11.8 min
5,COc1ccc(-c2coc3cc(O)ccc3c2=O)cc1 [Formononetin],12.4 min
6,O=C(C=CC=Cc1ccc2c(c1)OCO2)N1CCCCC1 [Piperine],13.7 min
7,CC1CCC2(NC1)OC1CC3C4CCC5CC(O)CCC5(C)C4CCC3(C)C1C2C (stereo not drawn) [Tomatidine],11.8 min

# Second part, the compound after the results:
row,LC retention time,SMILES
1,6.63 min,Cn1c(=O)[nH]c2nc[nH]c2c1=O [1-Methylxanthine]
2,7.8 min,O=Cc1ccc[nH]1 [1H-pyrrole-2-carboaldehyde]
3,10.9 min,CCCC(C(=O)O)c1cccc(O)c1 (stereo not drawn) [3-Hydroxyphenylvaleric acid]
4,9.86 min,"O=C(O)CCCCc1ccc(O)c(O)c1 [5-(3,4 dihydroxyphenyl)valeric acid]"
5,12.6 min,COc1c2ccoc2cc2oc(=O)ccc12 [Bergapten]
6,13.5 min,COc1ccc(-c2coc3cc(O)cc(O)c3c2=O)cc1 [Biochanin A]
7,13.7 min,COc1cc(CNC(=O)CCCCC=CC(C)C)ccc1O [Capsaicin]
8,9.2 min,CC(C)CC1NC(=O)C2CCCN2C1=O (stereo not drawn) [Cyclo(leucyl-prolyl)]
9,10.6 min,OCC(Cc1cccc(O)c1)C(CO)Cc1cccc(O)c1 (stereo not drawn) [Enterodiol]
10,11.7 min,COc1cc(C2CC(=O)c3c(O)cc(O)cc3O2)ccc1O (stereo not drawn) [Homoeriodictyol]
11,13.4 min,COc1ccc(-c2oc3cc(O)cc(O)c3c(=O)c2O)cc1 [Kaempferide]
12,13.2 min,COc1ccc(-c2cc(=O)c3c(OC)c(OC)c(OC)c(OC)c3o2)cc1OC [Nobiletin]
13,8.35 min,Oc1cc(O)c2c(c1)OC(c1ccc(O)c(O)c1)C(O)C2c1c(O)cc(O)c2c1OC(c1ccc(O)c(O)c1)C(O)C2 (stereo not drawn) [Procyanidin B2]
14,12.5 min,COc1cc(O)c2c(=O)c(O)c(-c3ccc(O)c(O)c3)oc2c1 [Rhamnetin]
15,12.6 min,COc1ccc(-c2cc(=O)c3c(OC)c(OC)c(OC)cc3o2)cc1OC [Sinensetin]
16,11.9 min,COc1ccc(-c2oc3cc(O)cc(O)c3c(=O)c2O)cc1O [Tamarixetin]
17,9.12 min,O=c1cc(-c2ccc(O)cc2)oc2c(C3OC(CO)C(O)C(O)C3O)c(O)cc(O)c12 (stereo not drawn) [Vitexin]

# Assay: RP, Agilent ZORBAX Eclipse XDB-C18, 100 × 2.1 mm, 1.8 µm, 50 °C, 0.4 mL/min, estimated dead time 0.55 min; A: water + 0.1% formic acid, pH 3; B: methanol + 0.1% formic acid, pH 3; gradient (min/%B) 0/2 10/100 14.5/100 14.51/2 16.5/2
# Conditions: stereoisomer not certain
row,SMILES,LC retention time
1,NCC(O)c1ccccc1 (stereo not drawn) [2-Amino-1-phenylethanol],1.42 min
2,COc1c(O)cccc1O [2-Methoxyresorcinol],2.68 min
3,Nc1ccc(C(=O)O)cc1 [4-Aminobenzoic acid],2.08 min
4,O=C([O-])C(O)c1ccccc1 (stereo not drawn) [Mandelic acid],3.01 min
5,Cc1cc2nc3c(=O)[nH]c(=O)nc-3n(CC(O)C(O)C(O)CO)c2cc1C (stereo not drawn) [Riboflavin],4.17 min
6,CC1NCCc2cc(O)c(O)cc21 (stereo not drawn) [Salsolinol],1.57 min
7,NCCc1c[nH]c2ccccc12 [Tryptamine],2.51 min
8,CC1=C(/C=C/C(C)=C/C=C/C(C)=C/C=C/C=C(C)/C=C/C=C(C)/C=C/C2=C(C)CCCC2(C)C)C(C)(C)CCC1 [beta-carotene],13.8 min

# Further lines, results first:
row,LC retention time,SMILES
1,2.21 min,"O=C(O)Cc1cc(O)cc(O)c1 [3,5-Dihydroxyphenylacetic acid]"
2,4.8 min,O=C([O-])CCc1ccccc1O [3-(2-Hydroxyphenyl)propionic acid]
3,2.63 min,O=C(O)CCCCC(=O)O [Adipic acid]
4,4.75 min,O=C(O)CNC(=O)C=Cc1ccccc1 [Cinnamoylglycine]
5,11.8 min,C=C1CCC(O)CC1=CC=C1CCCC2(C)C1CCC2C(C)C=CC(C)C(C)C (stereo not drawn) [Ergocalciferol]
6,1.82 min,O=C(O)Cc1cc(O)ccc1O [Homogentisic acid]
7,3.05 min,Cn1c(=O)c2[nH]cnc2n(C)c1=O [Theophylline]
8,1.65 min,COc1cc(C(O)C(=O)O)ccc1O (stereo not drawn) [Vanillylmandelic acid]

# Assay: RP, Waters ACQUITY UPLC BEH C18, 100 × 2.1 mm, 1.7 µm, 65 °C, 0.4 mL/min, estimated dead time 0.55 min; A: water + 0.1% formic acid, pH 3; B: 80% acetonitrile + 20% acetone + 0.1% formic acid, pH 3; gradient (min/%B) 0/0 5/100 5.5/0 6/0
# Conditions: stereoisomer not certain
row,SMILES,LC retention time
1,"COc1cc(CC(CO)C(CO)Cc2ccc(O)c(OC)c2)ccc1O (single isomer, unassigned; (-)) [(-)-Secoisolariciresinol]",2.4 min
2,"COc1cccc(OC)c1O [2,6-Dimethoxyphenol]",2.36 min
3,COc1cc(C(C)=O)ccc1O [4'-Hydroxy-3'methoxyacetophenone],2.18 min
4,Nc1ccc(C(=O)O)cc1 [4-Aminobenzoic acid],1.53 min
5,Cc1cc(C(=O)O)ccc1O [4-Hydroxy-3-methylbenzoic acid],2.03 min
6,C=C1CCC(O)CC1=CC=C1CCCC2(C)C1CCC2C(C)C=CC(C)C(C)(C)O (stereo not drawn) [25-Hydroxyvitamin-D2],5.07 min
7,O=Cc1c[nH]c2ccccc12 [Indole-3-carbaldehyde],2.32 min
8,CC(O)(CCO)CC(=O)[O-] (stereo not drawn) [Mevalonic acid],1.35 min
9,O=C(O)c1ccc2ccccc2n1 [Quinaldic acid],1.68 min
10,Cc1cc2nc3c(=O)[nH]c(=O)nc-3n(CC(O)C(O)C(O)CO)c2cc1C (stereo not drawn) [Riboflavin],1.73 min
11,NCCc1c[nH]c2ccccc12 [Tryptamine],1.51 min

# Other lines, results leading:
row,LC retention time,SMILES
1,2.86 min,"COc1cc(CC2COC(=O)C2Cc2ccc(O)c(OC)c2)ccc1O (single isomer, unassigned; (-)) [(-)-Matairesinol]"
2,1.72 min,CC(C)C(O)(CC(=O)O)C(=O)O (stereo not drawn) [2-Isopropylmalic acid]
3,1.37 min,O=C1CCCCN1 [2-Piperidinone]
4,1.99 min,CC1(O)Cc2c(O)cc(O)cc2OC1c1ccc(O)c(O)c1 (stereo not drawn) [3-Methylepicatechin]
5,2.06 min,O=C(O)CC(O)c1ccccc1 (stereo not drawn) [3-hydroxy-3-phenylpropionic acid]
6,3.73 min,CC12C=Cc3occc3C1CCC13CC(CCC12)C(O)(CO)C3 (stereo not drawn) [Kahweol]
7,2.96 min,COc1ccc(-c2oc3cc(O)cc(O)c3c(=O)c2O)cc1O [Tamarixetin]
8,1.5 min,Cn1c(=O)c2[nH]cnc2n(C)c1=O [Theophylline]
9,1.42 min,COc1cc(C(O)C(=O)O)ccc1O (stereo not drawn) [Vanillylmandelic acid]

# Assay: RP, Agilent InfinityLab Poroshell 120 EC-C18, 100 × 3 mm, 2.7 µm, 25 °C, 0.4 mL/min, estimated dead time 1.1 min; A: water + 0.1% formic acid, pH 3; B: acetonitrile + 0.1% formic acid, pH 3; gradient (min/%B) 0/5 10/25 20/40 24/90 25/90 26/5 30/5
# Conditions: stereoisomer not certain
row,SMILES,LC retention time
1,"COc1cc(CC(CO)C(CO)Cc2ccc(O)c(OC)c2)ccc1O (single isomer, unassigned; (-)) [(-)-Secoisolariciresinol]",11.5 min
2,O=C(O)C1OC(Oc2ccc(-c3coc4cc(O)ccc4c3=O)cc2)C(O)C(O)C1O (stereo not drawn) [Daidzein 4'-O-glucuronide],8.83 min
3,O=C(O)C1OC(Oc2ccc3c(=O)c(-c4ccc(O)cc4)coc3c2)C(O)C(O)C1O (stereo not drawn) [Daidzein 7-O-glucuronide],7.51 min
4,O=c1c(-c2ccc(O)cc2)coc2cc(OS(=O)(=O)O)ccc12 [Daidzein sulfate],9.85 min
5,Oc1ccc(CCc2cc(O)cc(O)c2)cc1 [Dihydroresveratrol],12.8 min
6,COc1ccc(C2CC(=O)c3c(O)cc(O)cc3O2)cc1OS(=O)(=O)O (stereo not drawn) [Hesperetin 3'-O-sulfate],13.3 min
7,O=c1oc2cc(O)ccc2c2cc(O)ccc12 [Isourolithin  A],12.7 min
8,O=S(=O)(O)Oc1ccc(C=Cc2cc(O)cc(O)c2)cc1 [Resveratrol 4'-sulfate],10 min
9,COc1cc(CC(COC2OC(CO)C(O)C(O)C2O)C(COC2OC(CO)C(O)C(O)C2O)Cc2ccc(O)c(OC)c2)ccc1O (stereo not drawn) [Secoisolariciresinol diglucoside],8.08 min
10,O=c1oc2cc(O)ccc2c2c(O)c(O)c(O)cc12 [Urolithin M6],9.62 min
11,O=C1c2ccccc2C(=O)c2c1cc(O)c(CO)c2O [lucidin],18.6 min

# More lines, now with the values ahead:
row,LC retention time,SMILES
1,6.5 min,O=C1CCC(Cc2ccc(O)c(OS(=O)(=O)O)c2)O1 (stereo not drawn)
2,10.6 min,O=C1CCC(Cc2cccc(O)c2)O1 (stereo not drawn)
3,6.49 min,"O=C(O)c1c(O)cccc1O [2,6-Dihydroxybenzoic acid]"
4,13.5 min,OCC(Cc1cccc(O)c1)C(CO)Cc1cccc(O)c1 (stereo not drawn) [Enterodiol]
5,11.6 min,O=S(=O)([O-])Oc1ccc(C2COc3cc(O)ccc3C2)cc1 (stereo not drawn) [Equol sulfate]
6,10.7 min,O=C(O)C1OC(Oc2ccc(-c3coc4cc(O)cc(O)c4c3=O)cc2)C(O)C(O)C1O (stereo not drawn) [Genistein 4'-O-glucuronide]
7,12.6 min,COc1ccc(C2CC(=O)c3c(O)cc(OS(=O)(=O)O)cc3O2)cc1O (stereo not drawn) [Hesperetin 7-sulfate]
8,8.44 min,O=C(O)C1OC(Oc2ccc3c(c2)oc(=O)c2ccc(O)cc23)C(O)C(O)C1O (stereo not drawn) [Isourolithin A glucuronide]
9,23.8 min,Cc1c(O)cc2c(c1O)C(=O)c1ccccc1C2=O [Rubiadin]
10,9.67 min,O=c1oc2cc(OS(=O)(=O)O)ccc2c2ccc(O)cc12 [Urolithin A-3-sulfate]
11,12.7 min,O=c1oc2cc(OS(=O)(=O)O)ccc2c2ccccc12 [Urolithin B-3-sulfate]
12,11.2 min,O=c1oc2cc(O)ccc2c2c(O)cc(O)cc12 [Urolithin M7]

# Reference: the RepoRT retention time repository (doi:10.1016/j.foodchem.2021.129757)
